# Laboratory results taken from US9833497B2, “Human originated EGF domain proteins and use of the same” (CHENGDU SOURCEBIO LIMITED-LIABILITY COMPANY, priority 2013, dated 2017).
# Test system: Proteus mirabilis
# Experiment: MIC against Gram-negative bacteria: Proteus mirabilis
# Type: cell-based
# Conditions: 96-well plate, 5×10^5 CFU/mL, 37° C., 10 h
# Outline: (§1)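 First, colonies from LB agar were grown in LB at 37° C, 185 rpm, to McFarland turbidity 0.5, then centrifuged and resuspended in fresh LB. Next, wells received 5×10^5 CFU/mL bacteria plus two-fold serially diluted EGF domain protein (triplicate). Finally, plates were shaken at 37° C and the no-growth concentration taken as MIC.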
row,Substance,MIC P. mirabilis [µg/mL]
1,PRT635 (DINECLEDKSVCQRGDCINTAGSYDCTCPDGFQLDDNKTCQ; listed as Homo sapiens),25
2,PRT677 (ETDECRLNQNICGHGECVPGPPDYSCHCNPGYRSHPQHRYCV; listed as Homo sapiens),50

# Same assay, conditions: P. mirabilis; 10 h cultivation at 37° C.
row,Substance,MIC [µg/mL]
1,PRT1001 (EMTACHSGPCLNGGSCNPSPGGYYCTCPPSHTGPQCQ; listed as Homo sapiens),12.5

# Test system: Aeromonas hydrophila
# Experiment: MIC against Gram-negative bacteria: Aeromonas hydrophila
# Type: cell-based
# Conditions: 96-well plate, 5×10^5 CFU/mL, 37° C., 10 h
# Outline: as §1
row,Substance,MIC A. hydrophila [µg/mL]
1,PRT635 (DINECLEDKSVCQRGDCINTAGSYDCTCPDGFQLDDNKTCQ; listed as Homo sapiens),25
2,PRT677 (ETDECRLNQNICGHGECVPGPPDYSCHCNPGYRSHPQHRYCV; listed as Homo sapiens),12.5

# Same assay, conditions: A. hydrophila; 10 h cultivation at 37° C.
row,Substance,MIC [µg/mL]
1,PRT1001 (EMTACHSGPCLNGGSCNPSPGGYYCTCPPSHTGPQCQ; listed as Homo sapiens),12.5

# Test system: E. coli DH5α
# Experiment: Antibacterial activity: MIC and growth curve against E. coli DH5α in 96-well plate
# Type: cell-based
# Conditions: minimal inhibitory concentration against E. coli DH5α; 96-well plate, 5×10^5 CFU/mL, 37° C., judged after 8 h
# Outline: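 MIC taken as lowest protein level with no bacterial growth, tracked by A600 every 30 min during 37 °C, 175 rpm culture. Two-fold protein series 50-12.5 μg/mL final, triplicate wells, against 5×10^5 CFU/mL of LB-washed mid-log cells.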
row,Substance,MIC [µg/mL]
1,PRT635 (DINECLEDKSVCQRGDCINTAGSYDCTCPDGFQLDDNKTCQ; listed as Homo sapiens),12.5
2,PRT1001 (EMTACHSGPCLNGGSCNPSPGGYYCTCPPSHTGPQCQ; listed as Homo sapiens),12.5
3,PRT677 (ETDECRLNQNICGHGECVPGPPDYSCHCNPGYRSHPQHRYCV; listed as Homo sapiens),50

# Test system: Citrobacter diversus
# Experiment: MIC against Gram-negative bacteria: Citrobacter diversus
# Type: cell-based
# Conditions: 96-well plate, 5×10^5 CFU/mL, 37° C., 10 h
# Outline: as §1
row,Substance,MIC C. diversus [µg/mL]
1,PRT635 (DINECLEDKSVCQRGDCINTAGSYDCTCPDGFQLDDNKTCQ; listed as Homo sapiens),12.5
2,PRT677 (ETDECRLNQNICGHGECVPGPPDYSCHCNPGYRSHPQHRYCV; listed as Homo sapiens),25

# Same assay, conditions: C. diversus; 10 h cultivation at 37° C.
row,Substance,MIC [µg/mL]
1,PRT1001 (EMTACHSGPCLNGGSCNPSPGGYYCTCPPSHTGPQCQ; listed as Homo sapiens),50

# Test system: Enterobacter cloacae
# Experiment: MIC against Gram-negative bacteria: Enterobacter cloacae
# Type: cell-based
# Conditions: 96-well plate, 5×10^5 CFU/mL, 37° C., 10 h
# Outline: as §1
row,Substance,MIC E. cloacae [µg/mL]
1,PRT635 (DINECLEDKSVCQRGDCINTAGSYDCTCPDGFQLDDNKTCQ; listed as Homo sapiens),12.5
2,PRT677 (ETDECRLNQNICGHGECVPGPPDYSCHCNPGYRSHPQHRYCV; listed as Homo sapiens),25

# Same assay, conditions: E. cloacae; 10 h cultivation at 37° C.
row,Substance,MIC [µg/mL]
1,PRT1001 (EMTACHSGPCLNGGSCNPSPGGYYCTCPPSHTGPQCQ; listed as Homo sapiens),25

# Test system: Proteus vulgaris
# Experiment: MIC against Gram-negative bacteria: Proteus vulgaris
# Type: cell-based
# Conditions: 96-well plate, 5×10^5 CFU/mL, 37° C., 10 h
# Outline: as §1
row,Substance,MIC P. vulgaris [µg/mL]
1,PRT635 (DINECLEDKSVCQRGDCINTAGSYDCTCPDGFQLDDNKTCQ; listed as Homo sapiens),12.5
2,PRT677 (ETDECRLNQNICGHGECVPGPPDYSCHCNPGYRSHPQHRYCV; listed as Homo sapiens),12.5

# Same assay, conditions: P. vulgaris; 10 h cultivation at 37° C.
row,Substance,MIC [µg/mL]
1,PRT1001 (EMTACHSGPCLNGGSCNPSPGGYYCTCPPSHTGPQCQ; listed as Homo sapiens),25

# Test system: Serratia marcescens
# Experiment: MIC against Gram-negative bacteria: Serratia marcescens
# Type: cell-based
# Conditions: 96-well plate, 5×10^5 CFU/mL, 37° C., 10 h
# Outline: as §1
row,Substance,MIC S. marcescens [µg/mL]
1,PRT635 (DINECLEDKSVCQRGDCINTAGSYDCTCPDGFQLDDNKTCQ; listed as Homo sapiens),25
2,PRT677 (ETDECRLNQNICGHGECVPGPPDYSCHCNPGYRSHPQHRYCV; listed as Homo sapiens),50

# Same assay, conditions: S. marcescens; 10 h cultivation at 37° C.
row,Substance,MIC [µg/mL]
1,PRT1001 (EMTACHSGPCLNGGSCNPSPGGYYCTCPPSHTGPQCQ; listed as Homo sapiens),50

# Test system: Klebsiella pneumonia
# Experiment: MIC against Gram-negative bacteria: Klebsiella pneumonia
# Type: cell-based
# Conditions: 96-well plate, 5×10^5 CFU/mL, 37° C., 10 h
# Outline: as §1
row,Substance,MIC K. pneumonia [µg/mL]
1,PRT635 (DINECLEDKSVCQRGDCINTAGSYDCTCPDGFQLDDNKTCQ; listed as Homo sapiens),25
2,PRT677 (ETDECRLNQNICGHGECVPGPPDYSCHCNPGYRSHPQHRYCV; listed as Homo sapiens),50

# Same assay, conditions: K. pneumonia; 10 h cultivation at 37° C.
row,Substance,MIC [µg/mL]
1,PRT1001 (EMTACHSGPCLNGGSCNPSPGGYYCTCPPSHTGPQCQ; listed as Homo sapiens),50

# Test system: Pseudomonas aeruginosa
# Experiment: MIC against Gram-negative bacteria: Pseudomonas aeruginosa
# Type: cell-based
# Conditions: 96-well plate, 5×10^5 CFU/mL, 37° C., 10 h
# Outline: as §1
row,Substance,MIC P. aeruginosa [µg/mL]
1,PRT635 (DINECLEDKSVCQRGDCINTAGSYDCTCPDGFQLDDNKTCQ; listed as Homo sapiens),12.5
2,PRT677 (ETDECRLNQNICGHGECVPGPPDYSCHCNPGYRSHPQHRYCV; listed as Homo sapiens),12.5

# Same assay, conditions: P. aeruginosa; 10 h cultivation at 37° C.
row,Substance,MIC [µg/mL]
1,PRT1001 (EMTACHSGPCLNGGSCNPSPGGYYCTCPPSHTGPQCQ; listed as Homo sapiens),12.5

# Test system: E. coli BL21
# Experiment: MIC against Gram-negative bacteria: E. coli BL21
# Type: cell-based
# Conditions: 96-well plate, 5×10^5 CFU/mL, 37° C., 10 h
# Outline: as §1
row,Substance,MIC E. coli BL21 [µg/mL]
1,PRT635 (DINECLEDKSVCQRGDCINTAGSYDCTCPDGFQLDDNKTCQ; listed as Homo sapiens),25
2,PRT677 (ETDECRLNQNICGHGECVPGPPDYSCHCNPGYRSHPQHRYCV; listed as Homo sapiens),25

# Same assay, conditions: E. coli BL21; 10 h cultivation at 37° C.
row,Substance,MIC [µg/mL]
1,PRT1001 (EMTACHSGPCLNGGSCNPSPGGYYCTCPPSHTGPQCQ; listed as Homo sapiens),50

# Test system: Moraxella catarrhalis
# Experiment: MIC against Gram-negative bacteria: Moraxella catarrhalis
# Type: cell-based
# Conditions: 96-well plate, 5×10^5 CFU/mL, 37° C., 10 h
# Outline: as §1
row,Substance,MIC M. catarrhalis [µg/mL]
1,PRT635 (DINECLEDKSVCQRGDCINTAGSYDCTCPDGFQLDDNKTCQ; listed as Homo sapiens),12.5
2,PRT677 (ETDECRLNQNICGHGECVPGPPDYSCHCNPGYRSHPQHRYCV; listed as Homo sapiens),25

# Same assay, conditions: M. catarrhalis; 10 h cultivation at 37° C.
row,Substance,MIC [µg/mL]
1,PRT1001 (EMTACHSGPCLNGGSCNPSPGGYYCTCPPSHTGPQCQ; listed as Homo sapiens),25
